# ChEMBL document CHEMBL5137028, “Progress and Challenges in Targeting the SARS-CoV-2 Papain-like Protease” (J Med Chem, 2022)
# Assays:
# SARS-CoV-2 [1] = assay: Antiviral activity against SARS-CoV-2 infected in African green monkey Vero cells assessed as viral growth inhibition by cell culture based assay; format: functional, organism-based; conditions: Severe acute respiratory syndrome coronavirus 2, Vero
# [2] = Cytotoxicity against African green monkey Vero E6 cells assessed as cell viability treated for 24 to 48 hrs by prestoblue staining based assay; format: toxicity, Vero C1008; conditions: chlorocebus sabaeus, time 24-48 hrs
# SARS-CoV-2 [3] = assay: Antiviral activity against SARS-CoV-2 USA-WA1/2020 isolate infected in human Caco2 expressing hACE2 cells assessed as viral growth inhibition at MOI of 0.1 treated for 24 hrs by fluorescence microscopy; format: functional, organism-based; conditions: Severe acute respiratory syndrome coronavirus 2, USA-WA1/2020 isolate, Caco-2, 24 h
# SARS-CoV-2 [4] = assay: Antiviral activity against SARS-CoV-2 infected in human HeLa cells expressing hACE2 assessed as inhibition of viral replication at MOI of 0.3 treated for 46 hrs by fluorescence microscopy; format: functional, organism-based; conditions: Severe acute respiratory syndrome coronavirus 2, HeLa
# HeLa = assay: Cytotoxicity against human HeLa cells expressing hACE2 assessed as cell viability treated for 72 hrs by Cell Titer Glo assay; format: functional
# SARS-CoV-2 [5] = assay: Antiviral activity against SARS-CoV-2 USA-WA1/2020 infected in African green monkey Vero E6 cells assessed as viral growth inhibition pretreated for 1 hr followed by infection at MOI of 0.1 measured after 48 hrs by Cell Titer Glo assay; format: functional, organism-based; conditions: Severe acute respiratory syndrome coronavirus 2, USA-WA1/2020, Vero C1008
# SARS-CoV-2 [6] = assay: Antiviral activity against SARS-CoV-2 infected in African green monkey Vero cells assessed as viral growth inhibition measured after 72 hrs by LDH assay; format: functional, organism-based; conditions: Severe acute respiratory syndrome coronavirus 2, Vero
# [7] = Stability in human liver S9 fraction assessed as half life; format: ADME, subcellular
# [8] = Stability in human liver microsome assessed as half life; format: ADME; conditions: liver microsomes
# SARS-CoV-2 [9] = assay: Antiviral activity against SARS-CoV-2 infected in African green monkey Vero cells assessed as viral growth inhibition incubated for 1 hr by crystal violet staining based plaque reduction assay; format: functional, organism-based; conditions: Severe acute respiratory syndrome coronavirus 2, Vero
# [10] = biological target: Replicase polyprotein 1ab (Severe acute respiratory syndrome coronavirus 2) (UniProt P0DTD1); assay: Inhibition of SARS-CoV-2 papain-like protease nsp3 (745 to 1061 residues) expressed in Escherichia coli
# [11] = Cytotoxicity against African green monkey Vero E6 cells assessed as cell viability treated for 24 hrs by CCK8 assay; format: toxicity, cell-based, Vero C1008; conditions: chlorocebus sabaeus
# SARS-CoV-2 [12] = assay: Antiviral activity against SARS-CoV-2 infected in human A549 cells expressing ACE2 assessed as viral growth inhibition; format: functional, organism-based; conditions: Severe acute respiratory syndrome coronavirus 2, A549
# A549 = assay: Cytotoxicity against human A549 cells expressing ACE2 assessed as cell viability; format: functional
# [13] = Selectivity index, ratio of CC50 for human A549 cells expressing ACE2 to EC50 for SARS-CoV-2 infected in human A549 cells expressing ACE2; format: toxicity, cell-based; conditions: read-out: Ratio CC50/EC50
# SARS-CoV-2 [14] = assay: Antiviral activity against SARS-CoV-2 infected in African green monkey Vero cells assessed as viral growth inhibition; format: functional, organism-based; conditions: Severe acute respiratory syndrome coronavirus 2, Vero
# [15] = Cytotoxicity against African green monkey Vero cells assessed as cell viability; format: toxicity, cell-based; conditions: chlorocebus sabaeus
# [16] = Selectivity index, ratio of CC50 for African green monkey Vero cells to EC50 for SARS-CoV-2 infected in African green monkey Vero cells; format: toxicity; conditions: read-out: Ratio CC50/EC50
# [17] = test system: Middle East respiratory syndrome-related coronavirus; assay: Antiviral activity against MERS-CoV assessed as viral growth inhibition; format: functional, organism-based
# [18] = Antiviral activity against HCoV-OC43 assessed as viral growth inhibition; format: functional, Human coronavirus OC43
# [19] = Cytotoxicity against African green monkey Vero E6 cells assessed as cell viability; format: toxicity, cell-based, Vero C1008; conditions: chlorocebus sabaeus
compound,measurement,setting,value
Cc1cc2nc3c(=O)[nH]c(=O)nc-3n(C)c2cc1C=O,EC50,SARS-CoV-2 [1],20 µM
O=C1c2c(O)cccc2[C@H]([C@@H]2O[C@H](CO)[C@@H](O)[C@H](O)[C@H]2O)c2cc(CO)cc(O)c21,CC50,[2],> 100 µM
O=C1c2c(O)cccc2[C@@H]([C@@H]2O[C@H](CO)[C@@H](O)[C@H](O)[C@H]2O)c2cc(CO)cc(O)c21,CC50,[2],> 100 µM
C[C@H](c1cccc2ccccc12)N(C)Cc1c[nH]c2ccccc12,EC50,SARS-CoV-2 [3],12 µM
C[C@H](c1cccc2ccccc12)N1CCC(C(=O)NCc2cc(F)cc(NC(=O)N3CCN(C)CC3)c2)CC1,EC50,SARS-CoV-2 [4],180 nM
same,CC50,HeLa,> 10 µM
C[C@@H](NC(=O)c1ccccc1CCC(=O)NNC(=O)CCl)c1cccc2ccccc12,EC50,SARS-CoV-2 [5],34 µM
COc1cc(CNC(=O)C2CCN(C(C)c3cccc4ccccc34)CC2)ccn1 (stereo not drawn),EC50,SARS-CoV-2 [6],< 11 µM
COC(=O)/C=C/C(=O)NNC(=O)CCc1ccccc1C(=O)N[C@H](C)c1cccc2ccccc12,half-life,[7],60 min
same,half-life,[8],50 min
Cc1ccc(N)cc1C(=O)N[C@H](C)c1cccc2ccccc12,EC50,SARS-CoV-2 [9],3.18 µM
same,EC50,SARS-CoV-2 [1],32.6 µM
COC(=O)/C=C/CNC(=O)CNC(=O)[C@H](CN)NC(=O)[C@H](CCc1ccc(O)cc1)NC(C)=O,INH,[10],100 µM
COC(=O)/C=C/CNC(=O)CNC(=O)[C@H](CN)NC(=O)[C@H](CCc1nc2ccccc2s1)NC(C)=O,INH,[10],100 µM
C[C@H]1COC2=C1C(=O)C(=O)c1c2ccc2c1CCCC2(C)C [CRYPTOTANSHINONE],EC50,SARS-CoV-2 [1],> 200 µM
same,CC50 at 24 h,[11],> 300 µM
Cc1cccc2c3c(ccc12)C1=C(C(=O)C3=O)[C@@H](C)CO1 [DIHYDROTANSHINONE I],EC50,SARS-CoV-2 [1],8.15 µM
Nc1ccc2cc3ccc(N)cc3nc2c1 [PROFLAVINE],EC50,SARS-CoV-2 [12],86 nM
same,CC50,A549,3.1 µM
same,selectivity ratio,[13],36
same,EC50,SARS-CoV-2 [14],64 nM
same,CC50,[15],3.4 µM
same,selectivity ratio,[16],53
same,IC50,[17],21 nM
same,IC50,[18],105 nM
Cc1coc2c1C(=O)C(=O)c1c-2ccc2c1CCCC2(C)C [TANSHINONE IIA],EC50,SARS-CoV-2 [1],> 200 µM
Cc1coc2c1C(=O)C(=O)c1c-2ccc2c(C)cccc12 [TANSHINONE I],CC50 at 24 h,[11],> 200 µM
Nc1nc2nc[nH]c2c(=S)[nH]1 [THIOGUANINE],CC50,[19],35.5 µM
